Measurements taken from patent US20160024051A1, “SALTS AND SOLID FORMS OF ISOQUINOLINONES AND COMPOSITION COMPRISING AND METHODS OF USING THE SAME” (INFINITY PHARMACEUTICALS, INC., priority 2013, published 2016).

What was measured:
[1] = Storage at 40° C./75% RH (elevated humidity) for 1 week, re-analysis by XRPD/HPLC; conditions: for Storage 40° C./75% RH: salt screen solids, 1 week, XRPD pattern or observation
Protocol: The crystalline solids were filtered, dried at ambient conditions, and stored at 40° C./75% RH for 1 week and analyzed by ^1H NMR/IC.
Samples from the screen using amorphous free base Compound 1 were analysed by ^1H-NMR and DSC, and re-analysis by XRPD was also carried out after drying at 50° C./vacuum and storage at 40° C./75% RH (the same sample was dried and stored at elevated humidity).

[2] = Polymorphism study: maturation (temperature cycling RT to 50° C.) in solvents, XRPD; assay type: physicochemical
Protocol: One of 21 solvents was added to each vial in a number of aliquots (up to 30 volumes), with shaking. All the samples were then placed under maturation between RT to 50° C. (4 hours at each temperature) for 3 days. After maturation the samples were analysed by XRPD. Clear solutions were cooled to −20° C. (freezer). If no precipitation occurred samples were evaporated at RT.
Samples were placed under maturation between RT-50° C. (4 hours cycle) for 3 days. After maturation the samples were analyzed by XRPD. Clear solutions were then cooled to −20° C. (freezer). If no precipitation occurred, samples were evaporated at RT.
The corresponding solvents and solvent mixtures were added in portions of (a total of) 5, 10, 20, and 30 volumes at 50° C., with shaking, aiming for clear solutions. After each addition, the vials were allowed to shake for 20 minutes, after which observations were made. Solutions were allowed to evaporate, whereas slurries were set for 8 hour temperature cycling maturation, between RT and 50° C., for 5 days.
The oils obtained by solvent evaporation were used for the maturation screen. Anhydrous solvents (5 volumes; 100 μL) were used in order to minimise the amount of water present. Any solutions were allowed to slowly evaporate, whereas slurries were set for 8 hour temperature cycling maturation, between RT and 50° C. […] These were matured for a further 24 hours before performing XRPD analysis.
The selected solvents and solvent mixtures (5 to 20 volumes) were added with stirring. Any solutions were allowed to slowly evaporate, whereas slurries were set for 8 hour temperature cycling maturation, between RT and 50° C., for 2 days.
Crystals were ground in order to analyse them by XRPD. Suspensions were set for temperature cycling for a total of five days after which time XRPD analysis was carried out.

[3] = Gravimetric vapour sorption (GVS); assay type: physicochemical; conditions: for GVS: moisture on loading: loaded at 40% RH, 25° C.; for GVS: XRPD after the experiment: re-analysis by XRPD after GVS
Protocol: Sorption isotherms were obtained using a Hiden IGASorp moisture sorption analyser, controlled by CFRSorp software. The sample temperature was maintained at 25° C. by a Huber re-circulating water bath. The humidity was controlled by mixing streams of dry and wet nitrogen, with a total flow rate of 250 ml/min. The relative humidity (RH) was measured by a calibrated Vaisala RH probe (dynamic range of 0-95% RH), located near the sample. The weight change, (mass relaxation) of the sample as a function of % RH was constantly monitored by the microbalance (accuracy ±0.001 mg). Typically 10-20 mg of sample was placed in a tared mesh stainless steel basket under ambient conditions. The sample was loaded and unloaded at 40% RH and 25° C. (typical room conditions). A moisture sorption isotherm was performed as outlined below (2 scans giving 1 complete cycle). The standard isotherm was performed at 25° C. at 10% RH intervals over a 0-90% RH range.
The software uses a least squares minimisation procedure together with a model of the mass relaxation, to predict an asymptotic value. The measured mass relaxation value must be within 5% of that predicted by the software, before the next % RH value is selected. The minimum equilibration time was set to 1 hour and the maximum to 4 hours. The sample was recovered after completion of the isotherm and re-analysed by XRPD.

[4] = Solubility assessment using FB Hydrate Form 2; assay type: physicochemical; conditions: for Solubility: (RT)
Protocol: The best solvent systems (clear solutions) were methanol:anisole 1:1 and DMSO (10 volumes, at RT), dioxane (10 volumes, 50° C.), chloroform (20 volumes, RT). […]

[5] = Solubility of free base hydrate and salts versus pH (Table 24); assay type: physicochemical

With COc1cc(-c2cccc3cc([C@H](C)Nc4nc(N)ncc4C#N)n(-c4ccccc4)c(=O)c23)ccn1 [listing 1 of 2 here] the “Storage 40° C./75% RH” value ([1]; listed as 1-2-Ethane disulfonic acid) was “acid salt Pattern 1”.

For COc1cc(-c2cccc3cc([C@H](C)Nc4nc(N)ncc4C#N)n(-c4ccccc4)c(=O)c23)ccn1 [listing 2 of 2 here], the “Storage 40° C./75% RH” value ([1]; listed as 2-Hydroxyethane sulfonic acid) was “Deliquesced”.

With COc1cc(-c2cccc3cc([C@H](C)Nc4nc(N)ncc4C#N)n(-c4ccccc4)c(=O)c23)ccn1.O=S(=O)(O)O.O=S(=O)(O)O [Amorphous Bis-Sulfuric Acid Salt] the XRPD ([2]; amorphous oil in anhydrous BuOAc 100 μL, maturation 48 h, RT-50° C. cycling) was “Amorphous”, the XRPD ([2]; amorphous oil in anhydrous DCM 100 μL, maturation 48 h, RT-50° C. cycling) was “Amorphous” and the XRPD ([2]; amorphous oil in anhydrous DIPE 100 μL, maturation 48 h, RT-50° C. cycling) was “Amorphous”. The XRPD ([2]; amorphous oil in anhydrous Dioxane 100 μL, maturation 48 h, RT-50° C. cycling) was “Amorphous glass”, the XRPD ([2]; amorphous oil in anhydrous EtOAc 100 μL, maturation 48 h, RT-50° C. cycling) was “Amorphous” and the XRPD ([2]; amorphous oil in anhydrous IPA 100 μL, maturation 48 h, RT-50° C. cycling) was “Amorphous glass”. For the same compound, the XRPD ([2]; amorphous oil in anhydrous Methanol 100 μL, solution set for evaporation) was “Oil”, the XRPD ([2]; amorphous oil in anhydrous TBME 100 μL, maturation 48 h, RT-50° C. cycling) was “Amorphous” and the XRPD ([2]; amorphous oil in anhydrous THF 100 μL, maturation 48 h, RT-50° C. cycling) was “Amorphous”. For the same compound, the XRPD ([2]; amorphous oil in anhydrous Toluene 100 μL, maturation 48 h, RT-50° C. cycling) was “Amorphous”.

In the case of CC(=O)O.COc1cc(-c2cccc3cc([C@H](C)Nc4nc(N)ncc4C#N)n(-c4ccccc4)c(=O)c23)ccn1.COc1cc(-c2cccc3cc([C@H](C)Nc4nc(N)ncc4C#N)n(-c4ccccc4)c(=O)c23)ccn1 [Batch 1 of Form 6], the “GVS: second cycle reversible moisture uptake” value ([3]; between 0-90% RH) was “cycle shows 4.9%”, the “GVS: moisture on loading” value [3] was 6.3% w/w moisture on and the “GVS: XRPD after the experiment” value [3] was “anhydrous Form 4”.

With COc1cc(-c2cccc3cc([C@H](C)Nc4nc(N)ncc4C#N)n(-c4ccccc4)c(=O)c23)ccn1.O [FB Hydrate Form 2] the “Solubility at 50° C.” value ([4]; 2-MeTHF, 50 vols) was “✓”, the “Solubility at 50° C.” value ([4]; DCM, 75 vols) was “✓” and the “Solubility at 50° C.” value ([4]; DCM:MeOH 1:1, 75 vols) was “✓”. For the same compound, the Solubility ([4]; DMSO, 10 vols) was “✓”, the “Solubility at 50° C.” value ([4]; Dioxane, 10 vols) was “✓” and the “Solubility at 50° C.” value ([4]; MeCN/5% water, 75 vols) was “✓”. The Solubility ([4]; MeOH/anisole, 10 vols) was “✓”, the “Solubility at 50° C.” value ([4]; THF, 50 vols) was “Almost” and the “Solubility at 50° C.” value ([4]; THF, 75 vols) was “✓”. For the same compound, the Solubility ([4]; chloroform, 20 vols) was “✓”, the XRPD ([2]; FB Hydrate Form 2 in 1-butanol, Maturation) was “Crystalline Form 5” and the XRPD ([2]; FB Hydrate Form 2 in 2-MeTHF, Evaporation yielded oil, maturation of oil) was “Crystalline Form 5”. The XRPD ([2]; FB Hydrate Form 2 in Acetone, Maturation) was “Crystalline Form 5”, the XRPD ([2]; FB Hydrate Form 2 in DCM:MeOH 1:1, Crystallization in fridge) was “Crystalline Form 5 + Form 1” and the XRPD ([2]; FB Hydrate Form 2 in DCM, Crystallization in fridge) was “Crystalline Form 5”. For the same compound, the XRPD ([2]; FB Hydrate Form 2 in DMSO, No crystallization in fridge, set for evaporation) was “Amorphous”, the XRPD ([2]; FB Hydrate Form 2 in Dioxane, Evaporation yielded oil, maturation of oil) was “Crystalline Form 5 + Form 3” and the XRPD ([2]; FB Hydrate Form 2 in EtOAc, Maturation) was “Crystalline Form 5”. For the same compound, the XRPD ([2]; FB Hydrate Form 2 in EtOH/5% water, Maturation) was “Crystalline Form 5”, the XRPD ([2]; FB Hydrate Form 2 in EtOH/water 1:1, Maturation) was “Crystalline Form 2” and the XRPD ([2]; FB Hydrate Form 2 in EtOH, Maturation) was “Crystalline Form 5”. The XRPD ([2]; FB Hydrate Form 2 in IPA, Maturation) was “Crystalline Form 5”, the XRPD ([2]; FB Hydrate Form 2 in IPAc, Maturation) was “Crystalline Form 5” and the XRPD ([2]; FB Hydrate Form 2 in MIBK, Maturation) was “Crystalline Form 5”. For the same compound, the XRPD ([2]; FB Hydrate Form 2 in MeCN/5% water, Crystallization in fridge) was “Crystalline Form 5”, the XRPD ([2]; FB Hydrate Form 2 in MeOH/anisole, Crystallization in fridge) was “Crystalline Form 5” and the XRPD ([2]; FB Hydrate Form 2 in THF, Crystallization in fridge) was “Crystalline Form 5”. The XRPD ([2]; FB Hydrate Form 2 in acetonitrile, Maturation) was “Crystalline Form 5” and the XRPD ([2]; FB Hydrate Form 2 in chloroform, Cooling in fridge yielded oil, maturation of oil) was “Crystalline Form 5”.

In the case of COc1cc(-c2cccc3cc([C@H](C)Nc4nc(N)ncc4C#N)n(-c4ccccc4)c(=O)c23)ccn1 [Form 4 of Free Base Compound 1], the “GVS: moisture uptaken” value ([3]; between 70-90% RH, with hysteresis on desorption) was 4.8 % w/w, the “GVS: moisture on loading” value [3] was 0.3 % w/w and the “GVS: XRPD after the experiment” value [3] was “No changes by XRPD after the experiment”.

For COc1cc(-c2cccc3cc([C@H](C)Nc4nc(N)ncc4C#N)n(-c4ccccc4)c(=O)c23)ccn1 [Form 6 of the free base of Compound 1], the “solid form after storage at elevated humidity” value ([1]; elevated humidity conditions, not specified in the sentence, listed as Form 6) was “conversion to Hydrate Form 3” and the “GVS behaviour (hydration / desolvation)” value ([3]; text statements, listed as Form 6) was “Desolvation to the anhydrous Form 4”.

COc1cc(-c2cccc3cc([C@H](C)Nc4nc(N)ncc4C#N)n(-c4ccccc4)c(=O)c23)ccn1.O=C(O)/C=C\C(=O)O [Maleic acid salt] gave a Solubility ([5]; 0.1N HCl, 37° C., at saturation) of 34 mg/mL, a Solubility ([5]; Simulated Gastric Fluid) of over 19 mg/mL and a Solubility ([5]; Simulated Intestinal Fluid) of 0.01 mg/mL. The Solubility ([5]; Water (pH 4.43)) was ~0.2 mg/mL (pH 4.43), the Solubility ([5]; citrate buffer, pH 2.5, at 37° C.) was 3.13 mg/mL at 37 °C and the Solubility ([5]; citrate buffer, pH 2.5, at RT) was 1.8 mg/mL at RT;. For the same compound, the Solubility ([5]; pH 1.6, 37° C.) was over 4, the Solubility ([5]; pH 1.6, RT) was over 4 and the Solubility ([5]; pH 2.5, 37° C.) was 3.07. The Solubility ([5]; pH 2.5, RT) was 3.57, the Solubility ([5]; pH 2.9, 37° C.) was 1.62 and the Solubility ([5]; pH 2.9, RT) was 1.39. It also gave a Solubility ([5]; pH 3.8, 37° C.) of 0.31 and a Solubility ([5]; pH 3.8, RT) of 0.24.
